Experimental data from patent publication US20130052646A1, “POSITIVE AND NEGATIVE […] FOR USE IN TH[…]” (Mascoma Corporation, priority 2009, published 2013).

Assays:
Type in all cases: cell-based, Clostridium thermocellum
C. thermocellum [1] = assay: Plating on media containing 5-FOA (pyrF negative selection); settings: for colony survival after plating on 5-FOA: rich media containing 500 μg of 5-FOA; for growth on media containing 5-FOA: FIG. 8
Experimental: Plasmid pMU482 was transformed into the wild type C. thermocellum strain 1313 and selected on a rich media containing thyamphenicol (at the concentration of 6 μg/ml) to select for cells containing the cat marker encoded on the plasmid. A schematic displaying the creation of the knockout vector is depicted in FIG. 2. Several colonies that resulted from the selection scheme were selected for PCR analysis to confirm that the plasmid had been transformed into the cells. A transformed colony was diluted into liquid, rich medium containing thyamphenicol at the concentration of 6 μg/ml and grown overnight. A culture containing pMU102 (control plasmid) was also grown similarly. The next day, each culture was serially diluted by ten fold (up to 10^−3) using fresh, rich media and 100 μL of the undiluted culture. Each of the dilutions were plated on rich media containing 500 μg of 5-FOA. A schematic of this plating strategy is depicted in FIG. 3.
The plasmid-free C. thermocellum ΔpyrF strain created above was tested to confirm that negative selection could be appropriately applied. Cells were grown and plated using media containing the toxic analog 5-fluoroorotic acid (5-FOA). The protein product of the pyrF gene converts 5-FOA into a toxic compound. Thus, the C. thermocellum ΔpyrF strain should be resistant to 5-FOA, but the wild type or a complemented strain should be susceptible to 5-FOA and unable to grow.

C. thermocellum [2] = assay: Plating on 8-azahypoxanthine (hpt negative selection, complementation); settings: 500 ug/ml 8-AzaH, FIG. 26
Experimental: Plasmid pMU1657 was transformed into the wild type C. thermocellum strain 1313 and selected for on chloramphenicol. Several colonies were selected and the transformed plasmid was verified by PCR. A colony was diluted into C. thermocellum growth medium and grown overnight. The following morning the dilution closest to an O.D of ˜1.0 was serially diluted and plated on defined medium containing 500 ug/ml 8-azahypoxanthine. Two days later, colonies were observed on the dilution representing 10^−3. Six colonies were selected and PCR screens were performed to verify that the hpt gene had been deleted from the chromosome. After PCR amplification, the expected size of the wild type product having no deletion is 3380 bp and the expected size of the hpt deletion is 2820 bp. […] The colonies were subsequently screened by PCR amplification to confirm that the plasmid had been cured (or lost). In FIG. 25, lane (P) represents the plasmid control that is 3750 bp in size. Colonies that have lost the plasmid would have no product migrating in the lane. The lack of product in lanes 1-6 representing the six different colonies confirm that the plasmid had been cured.
To provide stronger support for this conclusion, the knockout plasmid was reintroduced to look for complementation of the phenotype. […]

C. thermocellum [3] = assay: Plating in the presence of FUDR (tdk negative selection); settings: FIG. 18
Experimental: To this end, the C. thermocellum pyrF::tdk strain and the control C. thermocellum ΔpyrF strain were plated in the presence of 10 μg/ml FUDR. For each culture, a 10 dilution was used for the plating.

C. thermocellum [4] = assay: Plating of cured Δhpt strain on thiamphenicol; settings: plasmid-cured Δhpt strain; after 5 days
Experimental: To verify this, the new strain was grown up overnight and plated on thiamphenicol.

C. thermocellum [5] = assay: Growth in rich medium with uracil supplementation; settings: ΔpyrF strain; rich medium with additional 40 μg/ml uracil; 55° C.
Experimental: Growth rate measurements were performed in a 200 μl volume in a 96-well plate at 55° C. The optical density at 600 nm was read by a Powerwave XS platereader customized by the manufacturer to incubate up to 68° C. (BioTek). The plates were shaken continuously and read at three minute intervals. Each sample was measured in quadruplicate. The specific growth rate (0 was determined by measuring the slope of the natural log-transformed OD readings. A two hour sliding window of OD readings between 0.08 and 1.00 were used for determination of maximum rate μmax. In all cases, the R-squared value was greater than 0.99.
The growth of the pta::gapDHp-cat strain was compared to the wt and ΔpyrF strains in rich medium, with and without uracil supplementation. […] End product analysis was performed on batch fermentations started at pH 7.0 with 5 g/l cellobiose as the primary carbon source under anaerobic conditions with a nitrogen atmosphere and 80 ml working volume. After 48 hours of fermentation the wt and ΔpyrF strain produced about 1 g/l of acetic acid whereas the acetic acid production of the pta::gapDHp-cat was indistinguishable from background levels (average 0.03 g/l).

O=C(O)c1[nH]c(=O)[nH]c(=O)c1F [5-FOA, 5-fluoroorotic acid]
colony survival after plating on 5-FOA (C. thermocellum [1]; colonies containing wild-type pyrF): did not survive
colony survival after plating on 5-FOA (C. thermocellum [1]; colonies that contained the pyrF disruption): visible
growth on media containing 5-FOA (C. thermocellum [1]; plasmid-free ΔpyrF strain (also with control plasmid pMU102)): able to grow
growth on media containing 5-FOA (C. thermocellum [1]; ΔpyrF strain transformed with complementing plasmid pMU612 expressing pyrF): no growth

O=c1[nH]cnc2nn[nH]c12 [8-azahypoxanthine]
sensitivity to 8-azahypoxanthine (C. thermocellum [2]; Δhpt strain containing complementing plasmid pMU1657): sensitivity comparable to wild type levels
sensitivity to 8-azahypoxanthine (C. thermocellum [2]; Δhpt strain): completely insensitive

O=c1[nH]c(=O)n([C@H]2C[C@H](O)[C@@H](CO)O2)cc1F [FUDR, fluorodeoxyuridine]
growth in the presence of FUDR (C. thermocellum [3]; control ΔpyrF strain without tdk, 10 μg/ml FUDR): survived
growth in the presence of FUDR (C. thermocellum [3]; pyrF::tdk strain, 10 μg/ml FUDR with addition of thymidine): did grow
growth in the presence of FUDR (C. thermocellum [3]; pyrF::tdk strain, 10 μg/ml FUDR): did not grow

CS(=O)(=O)c1ccc([C@@H](O)[C@@H](CO)NC(=O)C(Cl)Cl)cc1 [thiamphenicol]
resistant colonies on thiamphenicol (C. thermocellum [4]): no thiamphenicol resistant colonies were observed

O=c1cc[nH]c(=O)[nH]1 [uracil]
effect of uracil supplementation on growth (C. thermocellum [5]): eliminated the growth defect
